From US10717718B2 (priority 2015, dated 2020) come the findings set out here.

What all share (format): cell-based
Experiment [1] relates to Escherichia coli O13.
The subject of experiment [2] is Legionella gormanii (Fluoribacter gormanii).
For experiment [3], the system named is Escherichia coli K12. Conditions: E. coli K12; 10 mM compound, 37° C., 18 hours; click with CR110-CCH; confocal microscopy.
Experiment [4] deals with Legionella pneumophila serogroup 1. Conditions: 10 mM compound, 37° C., 24 hours, click with CR110-CCH, confocal microscopy.

Entries after “also recorded” stand apart in the source; their conditions may differ.

Take `C=C(C[C@@H](O)[C@H]1OC(C)(C)O[C@@H]1[C@H](O)CN=[N+]=[N-])C(=O)OCC` [Compound 8a, ethyl (4R)-4-{(4R,5R)-5-[(R)-2-azido-1-hydroxyethyl]-2,2-dimethyl-1,3-dioxolan-4-yl)-4-hydroxy-2-methylenebutanoate]: the “detection / labelling signal of bacteria” value in experiment [1], in experiment [2], in experiment [3] and in experiment [4] was “detected; also recorded: clear labelling signal” in each case.

On to `C=C(C[C@H](O)[C@H]1OC(C)(C)O[C@@H]1[C@H](O)CN=[N+]=[N-])C(=O)OCC` [Compound 8b, ethyl (4S)-4-{(4R,5R)-5-[(R)-2-azido-1-hydroxyethyl]-2,2-dimethyl-1,3-dioxolan-4-yl)-4-hydroxy-2-methylenebutanoate], for which the “detection / labelling signal of bacteria” value in experiment [1], in experiment [2], in experiment [3] and in experiment [4] was “detected; also recorded: clear labelling signal” throughout.
